# Assay results: ChEMBL document CHEMBL1201862, “PubChem BioAssay data set” (2004)
#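 Exposure lasted 48 hours, with cells grown in 96-well plates and compounds tested at five concentrations. GI50 = concentration required for 50% inhibition of growth.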 Active and inactive are the calls of the source. Rule as the data show it: active = GI50 up to about 1.1 µM and inactive = higher.
# Legend:
# Test in all cases: NCI-60 cell line screen, 48 h
# EKVX = test system: EKVX
# NCI-H522 = test system: NCI-H522
# SW-620 = test system: SW-620
# A498 = test system: A498
# SF-295 = test system: SF-295
# MOLT-4 = test system: MOLT-4
# NCI-H226 = test system: NCI-H226
# SR = test system: SR
# NCI-H460 = test system: NCI-H460
# OVCAR-8 = test system: OVCAR-8
# LOX IMVI = test system: LOX IMVI
# 786-0 = test system: 786-0
# SK-MEL-5 = test system: SK-MEL-5
# IGROV-1 = test system: IGROV-1
# U-251 = test system: U-251
# OVCAR-3 = test system: OVCAR-3
# SF-539 = test system: SF-539
# ACHN = test system: ACHN
# KM12 = test system: KM12
# CAKI-1 = test system: CAKI-1
SMILES,GI50 (EKVX),GI50 (NCI-H522),GI50 (SW-620),GI50 (A498),GI50 (SF-295),GI50 (MOLT-4),GI50 (NCI-H226),GI50 (SR),GI50 (NCI-H460),GI50 (OVCAR-8),GI50 (LOX IMVI),GI50 (786-0),GI50 (SK-MEL-5),GI50 (IGROV-1),GI50 (U-251),GI50 (OVCAR-3),GI50 (SF-539),GI50 (ACHN),GI50 (KM12),GI50 (CAKI-1)
C/C1=C\C=C(\C(C)C)CC/C(C(=O)O)=C\CC/C(C)=C/CC1 [NEOCROTOCEMBRANEIC ACID],27.1 µM (inactive),19.3 µM (inactive),35.8 µM (inactive),17.6 µM (inactive),20 µM (inactive),19.1 µM (inactive),20.9 µM (inactive),19.5 µM (inactive),17.7 µM (inactive),31.2 µM (inactive),20.5 µM (inactive),24.6 µM (inactive),19.3 µM (inactive),42 µM (inactive),16.9 µM (inactive),16.6 µM (inactive),18.5 µM (inactive),34.3 µM (inactive),20.6 µM (inactive),31.7 µM (inactive)
O=S(=O)(Nc1ccccc1)c1ccc(-c2c3nc(c(-c4ccc(S(=O)(=O)Nc5ccccc5)cc4)c4ccc([nH]4)c(-c4ccc(S(=O)(=O)Nc5ccccc5)cc4)c4nc(c(-c5ccc(S(=O)(=O)Nc6ccccc6)cc5)c5ccc2[nH]5)C=C4)C=C3)cc1,> 31.6 µM (inactive),> 31.6 µM (inactive),> 31.6 µM (inactive),> 31.6 µM (inactive),22.9 µM (inactive),> 31.6 µM (inactive),> 100 µM (inactive),> 31.6 µM (inactive),11.6 µM (inactive),> 31.6 µM (inactive),> 10 µM (inactive),18.9 µM (inactive),> 31.6 µM (inactive),> 93.3 µM (inactive),> 31.6 µM (inactive),> 10 µM (inactive),> 31.6 µM (inactive),11.1 µM (inactive),> 31.6 µM (inactive),> 31.6 µM (inactive)
Cc1cc2c(cc1C(=O)CCC(=O)O)CC1(C2)Cc2cc(C)c(C(=O)CCC(=O)O)cc2C1,> 100 µM (inactive),> 100 µM (inactive),> 100 µM (inactive),> 100 µM (inactive),> 100 µM (inactive),> 100 µM (inactive),> 100 µM (inactive),> 100 µM (inactive),> 100 µM (inactive),> 100 µM (inactive),> 100 µM (inactive),> 100 µM (inactive),> 100 µM (inactive),> 100 µM (inactive),> 100 µM (inactive),> 100 µM (inactive),> 100 µM (inactive),> 100 µM (inactive),> 100 µM (inactive),> 100 µM (inactive)
Brc1nc2c3ccccc3ncn2c1Br,21.1 µM (inactive),18.7 µM (inactive),36.6 µM (inactive),43.5 µM (inactive),34.4 µM (inactive),25.3 µM (inactive),26.4 µM (inactive),19.4 µM (inactive),34.2 µM (inactive),42.7 µM (inactive),19 µM (inactive),37.2 µM (inactive),18.3 µM (inactive),35.9 µM (inactive),28.8 µM (inactive),0.316 µM (active),49.9 µM (inactive),19.6 µM (inactive),32.1 µM (inactive),28.3 µM (inactive)
